Data taken from paper PMC3561413 (PLoS ONE, 2013).

Legend:
[1] = test system: SET2 cells (JAK2V617F mutated); assay: Clonogenic assay in agar, SET2; type: cell-based; conditions: Homo sapiens, SET-2
Method: (§1) Ba/F3-EPOR cells, both wt and VF, HEL and SET2 cells were plated at 2×10^4 in 96-well culture tissue plates with increasing concentrations of the drug(s), in triplicate, and the amount of viable cells was assessed at 48 h using the WST-1 assay (Roche, USA) after normalization to wells containing an equivalent volume of vehicle (DMSO) only. For clonogenic assay, 5×10^3 cells were plated in 0.5% agar in medium supplemented with 10% FBS (plus 1 U/mL EPO in case of Ba/F3-EPOR wt cells); variable amount of the drug(s) (or an equivalent volume of vehicle in control plates) was added once at the beginning of culture. Colonies were enumerated by inverted microscopy after 7 day incubation, in duplicate. Quantification of apoptotic cells was accomplished by flow cytometry using the Annexin-V-FLUOS Staining kit (Roche); at least 20,000 events were acquired. For cell cycle distribution analysis by flow cytometry, 1×10^6 cells were treated with ethanol 95%, RNase 10 µg/mL and propidium iodide […].

BFU-E from PMF patients = assay: Colony assay for hematopoietic progenitors, BFU-E, PMF patients; type: cell-based; conditions: Homo sapiens, 336 h; MF (n = 10), day 14; read-out: IC50, BFU-E colony formation
Method: (§2) Figure 3 mTOR and JAK2 inhibitors preferentially suppress colony formation from hematopoietic progenitors of MPN patients as compared to healthy controls. Mononuclear cells from patients with PV or PMF (n = 10 each) or control subjects (n = 10) were plated at 10^5/mL in cytokine-supplemented methylcellulose medium for the growth of erythroid burst-forming unit (BFU-E) and granulocyte-macrophage colony-forming unit (CFU-GM), and CD34^+ cells (5×10^4/mL) were plated in collagen-based medium for megakaryocyte colony-forming unit (CFU-Mk). […] Colonies were enumerated on day 14 and expressed as a percentage of the colonies grown in control plates containing vehicle only.

Ba/F3-EPOR VF cells [2] = assay: Apoptosis (Annexin V flow cytometry), Ba/F3-EPOR VF; type: cell-based, mouse; conditions: for IC50: Mus musculus, 48 h, median, read-out: IC50 for apoptosis (Annexin V positive cells)
Method: as §1
(§3) Results shown are the Mean±SD of at least three experiments. In panel B, the percentage of Annexin V-positive cells was measured in cultures of Ba/F3-EPOR VF cells exposed to varying amount of the drugs for 48 h; percentage was calculated after subtraction of background apoptosis in cells incubated without drug. Results shown are the Mean±SD of at least three experiments. (TIF) Click here for additional data file.

[3] = test system: HEL cells (JAK2V617F mutated); assay: Inhibition of proliferation assay (WST-1, 48 h), HEL; type: cell-based; conditions: Homo sapiens
Method: as §1

[4] = test system: EEC from peripheral blood mononuclear cells of PV patients; assay: EEC assay (erythropoietin-independent erythroid colonies), PV patients; conditions: Homo sapiens, PBMC, 240 h, read-out: IC50 of EEC growth
[5] = test system: Ba/F3-EPOR wt cells (JAK2 wild-type); assay: Inhibition of proliferation assay (WST-1, 48 h), Ba/F3-EPOR wt; type: cell-based; conditions: Mus musculus, 1 U/mL EPO, mean±SD, read-out: IC50 of cell proliferation
Method: as §1

[6] = test system: CFU-GM from healthy controls; assay: Colony assay for hematopoietic progenitors, CFU-GM, healthy controls; type: cell-based; conditions: Homo sapiens, 336 h, Ctrl (n = 10), day 14, read-out: IC50, CFU-GM colony formation
Method: as §2

SET2 cells [7] = assay: Cell cycle distribution analysis by flow cytometry, SET2; type: cell-based; conditions: Homo sapiens, SET-2; SET2, median concentration; read-out: concentration giving 50% reduction of cells in the S-phase compared to controls
Method: as §1

CFU-Mk from PV patients = assay: Colony assay for hematopoietic progenitors, CFU-Mk, PV patients; type: cell-based; conditions: Homo sapiens, 336 h; PV (n = 10), day 14; read-out: IC50, CFU-Mk colony formation
Method: as §2

BFU-E from PV patients = assay: Colony assay for hematopoietic progenitors, BFU-E, PV patients; type: cell-based; conditions: Homo sapiens, 336 h; PV (n = 10), day 14; read-out: IC50, BFU-E colony formation
Method: as §2

[8] = test system: BFU-E from healthy controls; assay: Colony assay for hematopoietic progenitors, BFU-E, healthy controls; type: cell-based; conditions: Homo sapiens, 336 h; Ctrl (n = 10), day 14; read-out: IC50, BFU-E colony formation
Method: as §2

[9] = test system: SET2 cells (JAK2V617F mutated); assay: Inhibition of proliferation assay (WST-1, 48 h), SET2; type: cell-based; conditions: Homo sapiens, SET-2, SET2, 48 h
Method: as §1

[10] = test system: HEL cells (JAK2V617F mutated); assay: Clonogenic assay in agar, HEL; type: cell-based; conditions: Homo sapiens, Table 1
Method: as §1

CFU-GM from PV patients = assay: Colony assay for hematopoietic progenitors, CFU-GM, PV patients; type: cell-based; conditions: Homo sapiens, 336 h, PV (n = 10), day 14, read-out: IC50, CFU-GM colony formation
Method: as §2

SET2 cells [11] = assay: Apoptosis (Annexin V flow cytometry), SET2; type: cell-based; conditions: Homo sapiens, SET-2; SET2, median
Method: as §1

[12] = test system: Ba/F3-EPOR VF cells (JAK2V617F); assay: Clonogenic assay in agar, Ba/F3-EPOR VF; type: cell-based; conditions: Mus musculus, 168 h, semisolid culture, 7 days, single drug, read-out: IC50 of colony formation (clonogenic assay)
Method: as §1

CFU-Mk from PMF patients = assay: Colony assay for hematopoietic progenitors, CFU-Mk, PMF patients; type: cell-based; conditions: Homo sapiens, 336 h; MF (n = 10), day 14; read-out: IC50, CFU-Mk colony formation
Method: as §2

[13] = test system: Ba/F3-EPOR VF cells (JAK2V617F); assay: Inhibition of proliferation assay (WST-1, 48 h), Ba/F3-EPOR VF; type: cell-based; conditions: Mus musculus
Method: as §1

[14] = test system: Ba/F3-EPOR wt cells (JAK2 wild-type); assay: Clonogenic assay in agar, Ba/F3-EPOR wt; type: cell-based; conditions: Mus musculus, 168 h, semisolid culture, 7 days, 1 U/mL EPO, read-out: IC50 of colony formation (clonogenic assay)
Method: as §1

Ba/F3-EPOR VF cells [15] = assay: Cell cycle distribution analysis by flow cytometry (propidium iodide), Ba/F3-EPOR VF; type: cell-based; conditions: Mus musculus, after 24 hours, median value, read-out: concentration giving 50% reduction of the cells in the S-phase compared to untreated cells
Method: as §1, §3

[16] = test system: CFU-Mk from healthy controls; assay: Colony assay for hematopoietic progenitors, CFU-Mk, healthy controls; type: cell-based; conditions: Homo sapiens, 336 h; Ctrl (n = 10), day 14; read-out: IC50, CFU-Mk colony formation
Method: as §2

[17] = test system: CD34+ cells from PMF patients; assay: CD34+ proliferation assay (WST-1, 48 h), PMF patients; type: cell-based; conditions: Homo sapiens, CD34+ cell; PMF patients n = 6, 48 h, cytokine cocktail
Method: (§4) To measure the drug-induced inhibition of CD34^+ cell growth, purified cells were plated at 3·10^4 cells/well in IDMEM supplemented with cytokines and variable amounts of the drugs were added. Cell proliferation was evaluated using the WST-1 Assay (Roche, USA) after 48 h and results were normalized to wells containing vehicle only.
(§5) CD34^+ cells from patients with PMF (n = 6) or control subjects (Ctr; n = 5) were plated at 2×10^5/mL in 96-well culture tissue plates with increasing concentrations of the drugs, in triplicate; viable cells were assessed after 48 hrs using the WST-1 assay and normalized to wells containing an equivalent volume of vehicle (DMSO) only.

[18] = test system: CD34+ cells from healthy controls; assay: CD34+ proliferation assay (WST-1, 48 h), healthy controls; type: cell-based; conditions: Homo sapiens, CD34+ cell; healthy subjects n = 5, 48 h, cytokine cocktail
Method: as §4, §5

CFU-GM from PMF patients = assay: Colony assay for hematopoietic progenitors, CFU-GM, PMF patients; type: cell-based; conditions: Homo sapiens, 336 h, MF (n = 10), day 14, read-out: IC50, CFU-GM colony formation
Method: as §2

[19] = SET2, Table 1, read-out: IC50, clonogenic assay
[20] = SET2, Table 3, read-out: IC50, clonogenic potential, single drug
[21] = SET2, running text b32, read-out: concentration preventing colony formation (mean value)
[22] = Table 3, read-out: IC50, proliferation, single drug
[23] = read-out: IC50, proliferation assay
[24] = BaF3, 48 h, Ba/F3 VF liquid culture maintained with Epo 1 U/mL, read-out: IC50 of cell proliferation in the presence of Epo
[25] = Ba/F3-EPOR VF, 48 h, single drug, cytokine-free medium, mean±SD, read-out: IC50 of cell proliferation

Row | Structure (SMILES) | IC50 [1, 19] | IC50 [1, 20] | IC50 [1, 21] | IC50 (BFU-E from PMF patients) | IC50 (Ba/F3-EPOR VF cells [2]) | IC50 [3] | IC50 [4] | IC50 [5] | IC50 [6] | IC50 (SET2 cells [7]) | IC50 (CFU-Mk from PV patients) | IC50 [8] | IC50 (CFU-GM from PV patients) | IC50 (SET2 cells [11]) | IC50 (CFU-Mk from PMF patients) | IC50 (Ba/F3-EPOR VF cells [15]) | IC50 [16] | IC50 [17] | IC50 [18] | IC50 (CFU-GM from PMF patients) | also measured
1 | Cc1cc(Nc2nc(N[C@@H](C)c3ncc(F)cn3)ncc2Cl)n[nH]1 [AZD1480] | 35 ± 10 nM | 35 ± 10 nM | 35 nM | 27 ± 8 nM | 800 nM | 860 ± 20 nM | 19 ± 2 nM | 752 ± 30 nM | 193 ± 13 nM | 1500 nM | 44 ± 2 nM | 226 ± 17 nM | 46 ± 5 nM | 400 nM | 59 ± 3 nM | 1200 nM | 400 ± 12 nM | 474 ± 30 nM | 891 ± 100 nM | 9 ± 3 nM | IC50 (BFU-E from PV patients): 135 ± 19 nM; IC50 [9, 22]: 90 ± 5 nM; IC50 [9, 23]: 90 ± 5 nM; IC50 [10]: 460 ± 30 nM; IC50 [12]: 19 ± 11 nM; IC50 [13, 24]: 707 ± 11 nM; IC50 [13, 25]: 313 ± 23 nM; IC50 [14]: 750 ± 100 nM
2 | CO[C@H]1C[C@@H]2CC[C@@H](C)[C@@](O)(O2)C(=O)C(=O)N2CCCC[C@H]2C(=O)O[C@H]([C@H](C)C[C@@H]2CC[C@@H](OCCO)[C@H](OC)C2)CC(=O)[C@H](C)/C=C(\C)[C@@H](O)[C@@H](OC)C(=O)[C@H](C)C[C@H](C)/C=C/C=C/C=C/1C [RAD001, Everolimus] | 44 ± 15 nM | 44 ± 15 nM | 44 nM | 42 ± 10 nM | 5000 nM | 14000 ± 2800 nM | 15 ± 10 nM | 11000 nM | 335 ± 16 nM | 33000 nM | 50 ± 5 nM | 432 ± 22 nM | 75 ± 4 nM | 38000 nM | 44 ± 5 nM | 6500 nM | 572 ± 13 nM | 271 ± 100 nM | > 5000 nM | 46 ± 13 nM | drug concentration at which an increase of apoptotic cells became appreciable (Ba/F3-EPOR VF cells [2]; followed by a plateau): > 3.3 µM; IC50 (BFU-E from PV patients): 91 ± 15 nM; IC50 [9, 22]: 17000 nM; IC50 [9, 23]: 17000 nM; IC50 [10]: 930 ± 10 nM; IC50 [12]: 4 ± 2 nM; IC50 [13, 24]: 1230 nM; IC50 [13, 25]: 651 ± 50 nM; IC50 [14]: 22 ± 10 nM
3 | N#CC[C@H](C1CCCC1)n1cc(-c2ncnc3[nH]ccc23)cn1 [Ruxolitinib, ruxolitinib] |  |  |  | 46 ± 10 nM | 1300 nM |  | 1.8 ± 1 nM |  | 209 ± 40 nM | 10000 nM | 4 ± 2 nM | 167 ± 70 nM | 39 ± 6 nM | 500 nM | 4 ± 3 nM | 1870 nM | 12 ± 5 nM | 840 ± 300 nM | > 5000 nM | 43 ± 4 nM | 
